Results taken from patent US20170055529A1, “BROAD SPECTRUM WEED CONTROL IN FLOODED RICE BY IN-WATER APPLICATION OF AUXIN HERBICIDES” (priority 2015, published 2017).

Columns and labels:
Assay type in all cases: in vivo
[1] = test system: CYPDI = Cyperus difformis (small-flower flatsedge); experiment: Greenhouse in-water herbicidal activity (large pots); conditions: for Percent (%) Visual Injury Ratings - 16 DAA, CYPDI / Percent (%) Visual Injury Ratings - 22 DAA, CYPDI: greenhouse large pots; for pest or weed control at 280 g/ha / pest or weed control at 560 g/ha / pest or weed control at 1120 g/ha: Cyperus difformis, 744 h, read-out: Percent (%) Visual Injury Ratings - 31 DAA, CYPDI
Method: (§1) Weed seeds or nutlets of the desired test plant species were planted in puddled soil (mud) prepared by mixing shredded topsoil and deionized (DI) water in a 1:1 ratio in a standard cement mixer. […] Osmocote® (17:6:10 N:P:K; 0.5 teaspoon) was added to the bottom of a container. The container is a high-density polyethylene (HDPE) round container (4.163 L (1.1 gallon), 15 cm high×20.55 cm diameter; for treatment purposes, the surface area is calculated as 331 cm^2 with 1 hectare equivalent to 10^8 cm^2). The mud mixture (2,750 mL) was added to the container filling it half full. Stakes were placed horizontally in each container to create separate areas for which to plant each different plant species. Water was added on a regular basis to maintain the paddy flood, and supplemental lighting was provided with overhead metal halide 1000-Watt lamps as necessary.
(§2) Once the plants had reached the proper size (the growth stage of the various species ranged from 2 to 4 leaves), the containers were flooded with city water to a depth of 3 cm submerging the plants 80-100%. The outside of each container was measured and marked at a 3-cm line with a black permanent marker to eliminate water level variability during the trial period. Water was added daily to maintain this water depth. Triclopyr triethylammonium (as Garlon® 3 A, 360 g ae/L); triclopyr butoxyethyl ester (as Garlon® 4, 480 g ae/L); fluroxypyr methylheptyl ester (meptyl or MHE, as Starane® Ultra, 333 g ae/L); fluroxypyr acid (850 grams acid equivalent per kilogram (g ae/kg)); 2,4-dichlorophenoxyacetic acid dimethylammonium (2,4-D DMA, as Weedar® 64 EC, 456 g ae/L); 2,4-dichlorophenoxyacetic acid 2-ethylhexyl ester (2,4-D 2-EHE, as Agri Star®, 456 g ae/L); clopyralid olamine (as Stinger®, 360 g ae/L); and penoxsulam (as Grasp® SC, 240 g ai/L) were used. Each herbicide treatment for each pot was mixed in water (80 mL) and applied directly into the paddy water at rates adjusted to the surface area. The dry formulations were pre-weighed based on the rate of the active ingredient to be applied on a per unit area basis, placed in 30 mL vials, and capped. Granules were spread onto the top of the water in each pot and dispersed throughout the water. Treatments were replicated 3 times.
(§3) The treated plants and control plants were placed in a greenhouse as described above and water was added as needed to maintain a flood depth of 3 cm. […]

[2] = test system: ECHCG = Echinochloa crus-galli (barnyardgrass); experiment: as above; conditions: 744 h, read-out: Percent (%) Visual Injury Ratings - 31 DAA, ECHCG
Method: as §1, §2, §3

[3] = test system: MOOVA = Monochoria vaginalis (monochoria); experiment: as above; conditions: for Percent (%) Visual Injury Ratings - 16 DAA, MOOVA / Percent (%) Visual Injury Ratings - 22 DAA, MOOVA: greenhouse large pots; for pest or weed control at 280 g/ha / pest or weed control at 560 g/ha / pest or weed control at 1120 g/ha: Pontederia vaginalis, 744 h, read-out: Percent (%) Visual Injury Ratings - 31 DAA, MOOVA
Method: as §1, §2, §3

[4] = test system: ORYSP = Oryza sativa (transplanted paddy rice); experiment: Greenhouse in-water application (large pots), crop injury
Method: as §1, §2, §3

| SMILES | Percent (%) Visual Injury Ratings - 16 DAA, CYPDI ([1]; 35 g ae/ha) | Percent (%) Visual Injury Ratings - 22 DAA, CYPDI ([1]; 35 g ae/ha) | Percent (%) Visual Injury Ratings - 16 DAA, CYPDI ([1]; 70 g ae/ha) | Percent (%) Visual Injury Ratings - 22 DAA, CYPDI ([1]; 70 g ae/ha) | Percent (%) Visual Injury Ratings - 16 DAA, CYPDI ([1]; 140 g ae/ha) | Percent (%) Visual Injury Ratings - 22 DAA, CYPDI ([1]; 140 g ae/ha) | Percent (%) Visual Injury Ratings - 16 DAA, CYPDI ([1]; 280 g ae/ha) | Percent (%) Visual Injury Ratings - 22 DAA, CYPDI ([1]; 280 g ae/ha) | pest or weed control at 280 g/ha [1] | pest or weed control at 560 g/ha [1] | pest or weed control at 1120 g/ha [1] | pest or weed control at 280 g/ha [2] | pest or weed control at 560 g/ha [2] | pest or weed control at 1120 g/ha [2] | Percent (%) Visual Injury Ratings - 16 DAA, MOOVA ([3]; 35 g ae/ha) | Percent (%) Visual Injury Ratings - 22 DAA, MOOVA ([3]; 35 g ae/ha) | Percent (%) Visual Injury Ratings - 16 DAA, MOOVA ([3]; 70 g ae/ha) | Percent (%) Visual Injury Ratings - 22 DAA, MOOVA ([3]; 70 g ae/ha) | Percent (%) Visual Injury Ratings - 16 DAA, MOOVA ([3]; 140 g ae/ha) | Percent (%) Visual Injury Ratings - 22 DAA, MOOVA ([3]; 140 g ae/ha) | other results |
| --- | --- | --- | --- | --- | --- | --- | --- | --- | --- | --- | --- | --- | --- | --- | --- | --- | --- | --- | --- | --- | --- |
| O=C(O)COc1ccc(Cl)cc1Cl [2,4-D DMA (Weedar ® 64), dimethylammonium 2-(2,4-dichlorophenoxy)acetate] | 99% | 89% | 100% | 76% | 98% | 92% | 97% | 98% | 100% | 100% | 100% | 30% | 38% | 65% | 98% | 84% | 90% | 72% | 87% | 88% | Percent (%) Visual Injury Ratings - 16 DAA, MOOVA ([3]; 280 g ae/ha): 89%; Percent (%) Visual Injury Ratings - 22 DAA, MOOVA ([3]; 280 g ae/ha): 98%; pest or weed control at 280 g/ha [3]: 100%; pest or weed control at 560 g/ha [3]: 100%; pest or weed control at 1120 g/ha [3]: 100%; Percent (%) Visual Injury Ratings - 31 DAA, ORYSP ([4]; 280 g ae/ha in-water): 0%; Percent (%) Visual Injury Ratings - 31 DAA, ORYSP ([4]; 560 g ae/ha in-water): 3%; Percent (%) Visual Injury Ratings - 31 DAA, ORYSP ([4]; 1120 g ae/ha in-water): 4% |
| CCCCCCC(C)OC(=O)COc1nc(F)c(Cl)c(N)c1Cl (stereo not drawn) [Fluroxypyr-meptyl (Starane ® Ultra), 1-methylheptyl 2-[(4-amino-3,5-dichloro-6-fluoro-2-pyridinyl)oxy]acetate] | 8% | 28% | 13% | 28% | 20% | 79% | 33% | 89% | 100% | 100% | 100% | 45% | 75% | 99% | 27% | 0% | 27% | 3% | 13% | 0% | Percent (%) Visual Injury Ratings - 16 DAA, MOOVA ([3]; 280 g ae/ha): 5%; Percent (%) Visual Injury Ratings - 22 DAA, MOOVA ([3]; 280 g ae/ha): 15%; pest or weed control at 280 g/ha [3]: 100%; pest or weed control at 560 g/ha [3]: 100%; pest or weed control at 1120 g/ha [3]: 100%; Percent (%) Visual Injury Ratings - 31 DAA, ORYSP ([4]; 280 g ae/ha in-water): 5%; Percent (%) Visual Injury Ratings - 31 DAA, ORYSP ([4]; 560 g ae/ha in-water): 28%; Percent (%) Visual Injury Ratings - 31 DAA, ORYSP ([4]; 1120 g ae/ha in-water): 73% |
| O=C(O)COc1nc(Cl)c(Cl)cc1Cl [Triclopyr triethanolamine (Garlon ® 3A), triethylammonium 2[(3,5,6-trichloro-2-pyridinyl)oxy]acetate] | 100% | 100% | 98% | 100% | 97% | 100% | 100% | 100% | 97% | 99% | 100% | 65% | 75% | 89% | 84% | 92% | 89% | 89% | 78% | 82% | Percent (%) Visual Injury Ratings - 16 DAA, MOOVA ([3]; 280 g ae/ha): 98%; Percent (%) Visual Injury Ratings - 22 DAA, MOOVA ([3]; 280 g ae/ha): 100%; pest or weed control at 280 g/ha [3]: 100%; pest or weed control at 560 g/ha [3]: 100%; pest or weed control at 1120 g/ha [3]: 100%; Percent (%) Visual Injury Ratings - 31 DAA, ORYSP ([4]; 280 g ae/ha in-water): 1%; Percent (%) Visual Injury Ratings - 31 DAA, ORYSP ([4]; 560 g ae/ha in-water): 5%; Percent (%) Visual Injury Ratings - 31 DAA, ORYSP ([4]; 1120 g ae/ha in-water): 70% |
